In patent US9149038B2, “4-amino-6-(heterocyclic)picolinates and 6-amino-2-(heterocyclic)pyrimidine-4-carboxylates and their use as herbicides” (Dow AgroSciences LLC, priority 2013, dated 2015):
Read-outs that look alike come from different tables or passages of the source.

Experiments:
[1] = tested on: Key Grass and Sedge Weeds as well as Grass Crops; test: Post-Emergent Test II: postemergent herbicidal activity, visual rating after 14 d (Table 8); assay type: in vivo; details: post-emergence, 336 h; for pest or weed control at 35 g/ha: 35 g ai/ha; for pest or weed control at 70 g/ha: 70 g ai/ha; for pest or weed control at 140 g/ha: 140 g ai/ha
Method in brief: (§1)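 Visual 0-100% injury score (0 no injury, 100 complete kill) at 14 d post-spray, relative to untreated plants. Seedlings at 1st-2nd true leaf stage; track sprayer at 187 L/ha, highest rate plus ½×, ¼×, ⅛×, 1/16× serial dilutions. Subirrigated after treatment.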

[2] = tested on: Key Broadleaf Weed and Crop Species; test: Post-Emergent Test II: postemergent herbicidal activity, visual rating after 14 d (Table 7); assay type: in vivo; details: post-emergence, 336 h; for pest or weed control at 35 g/ha: 35 g ai/ha; for pest or weed control at 70 g/ha: 70 g ai/ha; for pest or weed control at 140 g/ha: 140 g ai/ha
Method in brief: as §1

[3] = barnyardgrass (Echinochloa crus-galli), read-out: Visual Growth Reduction (%) 14 Days After Application ECHCG
[4] = giant foxtail (Setaria faberi), read-out: Visual Growth Reduction (%) 14 Days After Application SETFA
[5] = maize, corn (Zea mays), read-out: Visual Growth Reduction (%) 14 Days After Application ZEAMX
[6] = rice (Oryza sativa), read-out: Visual Growth Reduction (%) 14 Days After Application ORYSA
[7] = wheat, spring (Triticum aestivum), read-out: Visual Growth Reduction (%) 14 Days After Application TRZAS
[8] = yellow nutsedge (Cyperus esculentus), read-out: Visual Growth Reduction (%) 14 Days After Application CYPES
[9] = lambsquarters (Chenopodium album), read-out: Visual Growth Reduction (%) 14 Days After Application CHEAL
[10] = oilseed rape, canola (Brassica napus), read-out: Visual Growth Reduction (%) 14 Days After Application BRSNN
[11] = redroot pigweed (Amaranthus retroflexus), read-out: Visual Growth Reduction (%) 14 Days After Application AMARE
[12] = sunflower (Helianthus annuus), read-out: Visual Growth Reduction (%) 14 Days After Application HELAN
[13] = velvetleaf (Abutilon theophrasti), read-out: Visual Growth Reduction (%) 14 Days After Application ABUTH
[14] = wild poinsettia (Euphorbia heterophylla), read-out: Visual Growth Reduction (%) 14 Days After Application EPHHL

Structure (SMILES) | pest or weed control at 35 g/ha [1, 3] | pest or weed control at 70 g/ha [1, 3] | pest or weed control at 140 g/ha [1, 3] | pest or weed control at 35 g/ha [1, 4] | pest or weed control at 70 g/ha [1, 4] | pest or weed control at 140 g/ha [1, 4] | pest or weed control at 35 g/ha [1, 5] | pest or weed control at 70 g/ha [1, 5] | pest or weed control at 140 g/ha [1, 5] | pest or weed control at 35 g/ha [1, 6] | pest or weed control at 70 g/ha [1, 6] | pest or weed control at 140 g/ha [1, 6] | pest or weed control at 35 g/ha [1, 7] | pest or weed control at 70 g/ha [1, 7] | pest or weed control at 140 g/ha [1, 7] | pest or weed control at 35 g/ha [1, 8] | pest or weed control at 70 g/ha [1, 8] | pest or weed control at 140 g/ha [1, 8] | pest or weed control at 35 g/ha [2, 9] | pest or weed control at 70 g/ha [2, 9] | other results
COC(=O)c1nc(-c2ccc3c(c2)OC(C)O3)c(F)c(N)c1Cl (stereo not drawn) [Compound 20] | 60 to 74% | 75 to 84% | 85 to 94% | 45 to 59% | 75 to 84% | 85 to 94% | 30 to 44% | 45 to 59% | 60 to 74% | 0 to 29% | 30 to 44% | 30 to 44% | 0 to 29% | 0 to 29% | 0 to 29% | 45 to 59% | 75 to 84% | 85 to 94% | 0 to 29% | 30 to 44% | pest or weed control at 140 g/ha [2, 9]: 75 to 84%; pest or weed control at 35 g/ha [2, 10]: 0 to 29%; pest or weed control at 70 g/ha [2, 10]: 0 to 29%; pest or weed control at 140 g/ha [2, 10]: 30 to 44%; pest or weed control at 35 g/ha [2, 11]: 60 to 74%; pest or weed control at 70 g/ha [2, 11]: 95 to 100%; pest or weed control at 140 g/ha [2, 11]: 95 to 100%; pest or weed control at 35 g/ha [2, 12]: 60 to 74%; pest or weed control at 70 g/ha [2, 12]: 75 to 84%; pest or weed control at 140 g/ha [2, 12]: 85 to 94%; pest or weed control at 35 g/ha [2, 13]: 30 to 44%; pest or weed control at 70 g/ha [2, 13]: 60 to 74%; pest or weed control at 140 g/ha [2, 13]: 95 to 100%; pest or weed control at 35 g/ha [2, 14]: 45 to 59%; pest or weed control at 70 g/ha [2, 14]: 85 to 94%; pest or weed control at 140 g/ha [2, 14]: 85 to 94%
COC(=O)c1nc(-c2ccc(Cl)c3c2OC(F)(F)O3)c(F)c(N)c1Cl [Compound 75] | 0 to 29% | 0 to 29% | 0 to 29% | 0 to 29% | 0 to 29% | 0 to 29% | 95 to 100% | 95 to 100% | 95 to 100% | 0 to 29% | 0 to 29% | 0 to 29% | 0 to 29% | 0 to 29% | 0 to 29% | 0 to 29% | 0 to 29% | 45 to 59% | 95 to 100% | 95 to 100% | pest or weed control at 140 g/ha [2, 9]: 95 to 100%; pest or weed control at 35 g/ha [2, 10]: 75 to 84%; pest or weed control at 70 g/ha [2, 10]: 85 to 94%; pest or weed control at 140 g/ha [2, 10]: 95 to 100%; pest or weed control at 35 g/ha [2, 11]: 95 to 100%; pest or weed control at 70 g/ha [2, 11]: 95 to 100%; pest or weed control at 140 g/ha [2, 11]: 95 to 100%; pest or weed control at 35 g/ha [2, 12]: 95 to 100%; pest or weed control at 70 g/ha [2, 12]: 95 to 100%; pest or weed control at 140 g/ha [2, 12]: 95 to 100%; pest or weed control at 35 g/ha [2, 13]: 85 to 94%; pest or weed control at 70 g/ha [2, 13]: 95 to 100%; pest or weed control at 140 g/ha [2, 13]: 95 to 100%; pest or weed control at 35 g/ha [2, 14]: 0 to 29%; pest or weed control at 70 g/ha [2, 14]: 0 to 29%; pest or weed control at 140 g/ha [2, 14]: 0 to 29%
COC(=O)c1nc(-c2c(F)cc3c(c2F)OC(F)(F)O3)cc(N)c1Cl [Compound 46] | 45 to 59% | 60 to 74% | 85 to 94% | 0 to 29% | 0 to 29% | 0 to 29% | 0 to 29% | 45 to 59% | 75 to 84% | 0 to 29% | 0 to 29% | 0 to 29% | 0 to 29% | 30 to 44% | 45 to 59% | 95 to 100% | 95 to 100% | 95 to 100% | 95 to 100% | 95 to 100% | pest or weed control at 140 g/ha [2, 9]: 95 to 100%; pest or weed control at 35 g/ha [2, 10]: 95 to 100%; pest or weed control at 70 g/ha [2, 10]: 95 to 100%; pest or weed control at 140 g/ha [2, 10]: 95 to 100%; pest or weed control at 35 g/ha [2, 11]: 95 to 100%; pest or weed control at 70 g/ha [2, 11]: 95 to 100%; pest or weed control at 140 g/ha [2, 11]: 95 to 100%; pest or weed control at 35 g/ha [2, 12]: 0 to 29%; pest or weed control at 70 g/ha [2, 12]: 30 to 44%; pest or weed control at 140 g/ha [2, 12]: 60 to 74%; pest or weed control at 35 g/ha [2, 13]: 85 to 94%; pest or weed control at 70 g/ha [2, 13]: 95 to 100%; pest or weed control at 140 g/ha [2, 13]: 95 to 100%; pest or weed control at 35 g/ha [2, 14]: 30 to 44%; pest or weed control at 70 g/ha [2, 14]: 60 to 74%; pest or weed control at 140 g/ha [2, 14]: 85 to 94%
